Drawing on ChEMBL document CHEMBL2074502, “Effect of furanocoumarin derivatives in grapefruit juice on the uptake of vinblastine by Caco-2 cells and on the activity of cytochrome P450 3A4” (Br J Pharmacol, 2000), this text covers EC200 for five molecules.

For this series, the target named is ATP-dependent translocase ABCB1 (Homo sapiens, UniProt P08183). Briefly: TP_TRANSPORTER: increase uptake (Vinblastine: 0.01 uM) in Caco-2 cells. Format: functional, cell-based.
Chain of ATP-dependent translocase ABCB1 (P08183 whole entry): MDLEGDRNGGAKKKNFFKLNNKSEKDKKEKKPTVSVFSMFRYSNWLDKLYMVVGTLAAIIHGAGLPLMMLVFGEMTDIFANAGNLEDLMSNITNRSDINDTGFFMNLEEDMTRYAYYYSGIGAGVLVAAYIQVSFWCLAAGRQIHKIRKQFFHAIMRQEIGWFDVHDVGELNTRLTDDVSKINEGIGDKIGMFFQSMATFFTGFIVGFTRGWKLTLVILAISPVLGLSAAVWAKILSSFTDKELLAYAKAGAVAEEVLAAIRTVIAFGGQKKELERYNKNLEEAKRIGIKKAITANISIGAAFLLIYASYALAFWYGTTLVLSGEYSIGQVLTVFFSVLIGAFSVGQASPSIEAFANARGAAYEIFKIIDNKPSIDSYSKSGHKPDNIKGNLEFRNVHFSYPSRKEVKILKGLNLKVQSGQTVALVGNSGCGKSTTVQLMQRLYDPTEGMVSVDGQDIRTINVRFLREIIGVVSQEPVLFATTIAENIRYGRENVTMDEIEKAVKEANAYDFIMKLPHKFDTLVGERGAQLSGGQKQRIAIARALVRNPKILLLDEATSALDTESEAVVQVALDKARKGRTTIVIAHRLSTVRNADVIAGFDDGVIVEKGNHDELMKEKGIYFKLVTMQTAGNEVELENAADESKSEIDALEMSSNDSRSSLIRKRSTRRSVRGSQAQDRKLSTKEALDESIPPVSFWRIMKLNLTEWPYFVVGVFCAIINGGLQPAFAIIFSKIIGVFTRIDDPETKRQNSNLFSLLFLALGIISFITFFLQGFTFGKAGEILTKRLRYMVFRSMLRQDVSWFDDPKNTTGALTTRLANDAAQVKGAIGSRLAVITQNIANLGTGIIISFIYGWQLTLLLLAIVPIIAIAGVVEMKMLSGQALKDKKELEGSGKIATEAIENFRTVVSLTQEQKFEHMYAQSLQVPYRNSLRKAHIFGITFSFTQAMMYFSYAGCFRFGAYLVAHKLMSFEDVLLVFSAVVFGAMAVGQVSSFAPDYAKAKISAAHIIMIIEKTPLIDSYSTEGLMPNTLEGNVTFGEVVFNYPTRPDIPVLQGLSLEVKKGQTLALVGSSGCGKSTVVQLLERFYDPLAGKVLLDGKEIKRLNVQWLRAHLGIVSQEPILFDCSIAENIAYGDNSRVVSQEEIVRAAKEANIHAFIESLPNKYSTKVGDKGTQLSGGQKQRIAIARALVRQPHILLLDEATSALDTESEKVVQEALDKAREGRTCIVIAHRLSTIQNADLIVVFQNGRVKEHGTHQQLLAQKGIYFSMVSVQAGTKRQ
`C/C(=C\COc1c2ccoc2cc2oc(=O)ccc12)CC[C@@H](O)C(C)(C)O` had an EC200 of 0.04 µM. In the case of `CC(C)=CCC/C(C)=C/COc1c2ccoc2cc2oc(=O)ccc12` [BERGAMOTTIN], the EC200 amounted to 0.035 µM.

Regarding `COc1c2ccoc2cc2oc(=O)ccc12` [BERGAPTEN], the EC200 turned out to be 0.05 µM.

`O=c1ccc2c(O)c3ccoc3cc2o1` [BERGAPTOL] had an EC200 of 0.3 µM.

Molecule `C/C(=C\COc1c2ccoc2cc2oc(=O)ccc12)CCC(OC(C)(C)C(O)CC/C(C)=C/COc1c2ccoc2cc2oc(=O)ccc12)C(C)(C)O` (stereo not given) [FC726] had an EC200 of 0.035 µM.
